Experiments:
Assay in all cases: combination Emax (second highest fraction inhibited in the dose matrix, 72 h); higher = more inhibition; extreme values may be limits of the assay
[1] = tested on: A4-Fuk (B-Lymphoblastic Leukemia)
Procedure, shortened: (§1)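 Cell lines grown in DMEM/F12 or RPMI with 10% FBS were plated in 1536-well plates and held 24 hours at 37°C, 5% CO2 before 72 hours of exposure to two-drug dose matrices, with DMSO typically at 0.2%. CellTiter-Glo 2.0 luminescence gave viability, which was converted to inhibition. Vehicle wells were set to 0 and blank wells to 1. Combination Emax is the second-highest inhibition in the matrix, and Bliss excess is the observed combination effect minus the expected EA + EB − EA·EB, where EA and EB are the single-agent effects.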

[2] = tested on: ALL-SIL (T-Lymphoblastic Leukemia)
Procedure, shortened: as §1

[3] = tested on: COLO-679 (Melanoma)
Procedure, shortened: as §1

[4] = tested on: EJM (Plasma Cell Myeloma)
Procedure, shortened: as §1

[5] = tested on: HCC2998 (Colorectal Carcinoma)
Procedure, shortened: as §1

[6] = tested on: KMRC-1 (Kidney Carcinoma)
Procedure, shortened: as §1

[7] = tested on: KOPN-8 (B-Lymphoblastic Leukemia)
Procedure, shortened: as §1

[8] = tested on: LC-1-sq (Squamous Cell Lung Carcinoma)
Procedure, shortened: as §1

[9] = tested on: MDA-MB-453 (Breast Carcinoma)
Procedure, shortened: as §1

[10] = tested on: ML-2 (Acute Myeloid Leukemia)
Procedure, shortened: as §1

[11] = tested on: MOLT-4 (T-Lymphoblastic Leukemia)
Procedure, shortened: as §1

[12] = tested on: NCI-H1092 (Small Cell Lung Carcinoma)
Procedure, shortened: as §1

[13] = tested on: NCI-H1355 (Lung Adenocarcinoma)
Procedure, shortened: as §1

[14] = tested on: NCI-H1838 (Lung Adenocarcinoma)
Procedure, shortened: as §1

[15] = tested on: NCI-H1993 (Lung Adenocarcinoma)
Procedure, shortened: as §1

[16] = tested on: SK-N-AS (Neuroblastoma)
Procedure, shortened: as §1

[17] = tested on: SKN (Other Solid Carcinomas)
Procedure, shortened: as §1

[18] = tested on: SNU-387 (Hepatocellular Carcinoma)
Procedure, shortened: as §1

[19] = tested on: SW872 (Other Solid Carcinomas)
Procedure, shortened: as §1

[20] = tested on: SW982 (Other Solid Carcinomas)
Procedure, shortened: as §1

SMILES	combination Emax [1]	combination Emax [2]	combination Emax [3]	combination Emax [4]	combination Emax [5]	combination Emax [6]	combination Emax [7]	combination Emax [8]	combination Emax [9]	combination Emax [10]	combination Emax [11]	combination Emax [12]	combination Emax [13]	combination Emax [14]	combination Emax [15]	combination Emax [16]	combination Emax [17]	combination Emax [18]	combination Emax [19]	combination Emax [20]
Cc1c2c(nn1C)CSCc1cc(n(C)n1)CSc1cc(c3ccccc3c1)OCCCc1c(C(=O)O)n(C)c3c-2c(Cl)ccc13 [AZD5991] + Cc1cc2ncnn2cc1Nc1ncc2c(n1)n(C1CCOCC1)c(=O)n2C [AZD7648] (first compound max 1 µM, 7x7, partner max 10 µM)	1	1	0.259	0.971	0.899	0.203	0.936	0.269	0.381	1	0.429	0.583	0.393	0.259	0.492	0.59	0.305	0.393	0.258	0.371
Cc1c2c(nn1C)CSCc1cc(n(C)n1)CSc1cc(c3ccccc3c1)OCCCc1c(C(=O)O)n(C)c3c-2c(Cl)ccc13 [AZD5991] + C[C@@H]1COCCN1C2=NC(=NC(=C2)C3(CC3)[S@](=N)(=O)C)C4=C5C=CNC5=NC=C4 [AZD6738] (first compound max 1 µM, 7x7, partner max 10 µM)	1	1	0.674	1	0.994	0.549	0.998	0.845	0.886	1	1	0.887	0.652	0.72	0.517	0.966	0.42	0.638	0.547	0.748
CN(CCO)CC[C@H](CSc1ccccc1)Nc1ccc(S(=O)(=O)NC(=O)c2ccc(N3CCC([C@@H](O)c4ccccc4-c4ccc(Cl)cc4)CC3)cc2)cc1S(=O)(=O)C(F)(F)F [AZD4320] + C=CCn1c(=O)c2cnc(Nc3ccc(N4CCN(C)CC4)cc3)nc2n1-c1cccc(C(C)(C)O)n1 [AZD1775] (first compound max 1 µM, partner max 1 µM)	0.898	1	0.521	0.977	0.899	0.278	1	0.869	0.285	1	1	0.809	0.594	0.541	0.927	0.976	0.586	0.681	0.3	0.953
CN(C)CCCOc1ccc(-c2ccc3ncc4c(c3c2)n(C2CCOCC2)c(=O)n4C)cn1 [AZD0156] + C[C@@H]1COCCN1C2=NC(=NC(=C2)C3(CC3)[S@](=N)(=O)C)C4=C5C=CNC5=NC=C4 [AZD6738] (first compound max 1 µM, 7x7, partner max 10 µM)	0.734	0.887	0.749	0.894	0.831	0.575	0.927	0.877	0.831	0.967	0.97	0.174	0.69	0.745	0.616	0.805	0.344	0.553	0.552	0.723
COc1nnc2ccc(N3CCC(c4ccc(OCCN5CCN(C)C(=O)[C@H]5C)cc4)CC3)nn12 [AZD5153] + C[C@@H]1COCCN1C2=NC(=NC(=C2)C3(CC3)[S@](=N)(=O)C)C4=C5C=CNC5=NC=C4 [AZD6738] (first compound max 1 µM, 7x7, partner max 10 µM)	0.882	1	0.718	0.867	0.926	0.456	1	0.783	0.837	1	0.999	0.523	0.639	0.441	0.738	0.716	0.71	0.524	0.634	0.843
Cn1cnc2c(F)c(Nc3ccc(Br)cc3Cl)c(C(=O)NOCCO)cc21 [Selumetinib] + C[C@@H]1COCCN1C2=NC(=NC(=C2)C3(CC3)[S@](=N)(=O)C)C4=C5C=CNC5=NC=C4 [AZD6738] (first compound max 10 µM, 7x7, partner max 10 µM)	0.836	0.934	0.82	0.855	0.899	0.373	1	0.684	0.684	0.982	0.991	0.111	0.596	0.374	0.795	0.817	0.423	0.454	0.276	0.593

From the supplement of paper PMC11061612
